Laboratory results taken from patent US7700584B2 (Hangzhou Minsheng Pharmaceuticals Co., Ltd., priority 2004, dated 2010).
Converted amounts (≈) assume the structure as drawn. Counter-ions that a name gives are not always drawn.

Assays:
[1] = system: Bel-7402 human hepatic carcinoma; assay: In vitro anti-tumor IC50 (MTT), Bel-7402; format: cell-based; conditions: Homo sapiens, Bel-7402, Table 4; read-out: IC50 (ug/ml) against tumor cell lines, Bel-7402
Protocol: (§1) (1) Single cell suspension was seeded into 96-well plates (the cells was diluted in the PRMI-1640 minimum medium to 3×10^4 cells/ml, […] diluted cells/well). […] The experiments were performed in quadruplicate.
(§2) (2) The medium was removed. Solutions of the anti-tumor agents (50 compounds) were prepared in a freshly prepared medium at serial concentrations. […] of the solution was added into each well. Incubation was continued for 48 hours.
(§3) (3) 20 ug of 2 mg/ml MTT was added into each well, and incubated for 4 hours.
(§4) (4) The medium was removed from the well. The microplates were swiftly turned down to throw-off the medium. […] of DMSO was added into each well, and vortexed at room temperature for 10 minutes.
(§5) (5) OD value (λ=570 nm) was measured with an Enzyme-Linked Detector.
(§6) (6) The graph of cell vitality was plotted, and IC50 was calculated.

[2] = system: LLC mouse Lewis lung carcinoma; assay: In vitro anti-tumor IC50 (MTT), LLC; format: cell-based; conditions: Mus musculus, Lewis lung carcinoma, Table 4; read-out: IC50 (ug/ml) against tumor cell lines, LLC
Protocol: as §1, §2, §3, §4, §5, §6

[3] = system: eight selected tumor cell lines; assay: In vitro anti-tumor IC50, summary over the selected tumor cell lines; format: cell-based
Protocol: as §1, §2, §3, §4, §5, §6

[4] = system: A-549 human lung adenocarcinoma; assay: In vitro anti-tumor IC50 (MTT), A-549; format: cell-based; conditions: Homo sapiens, A549, Table 4; read-out: IC50 (ug/ml) against tumor cell lines, A-549
Protocol: as §1, §2, §3, §4, §5, §6

[5] = system: SMMC-7721 human hepatic carcinoma; assay: In vitro anti-tumor IC50 (MTT), SMMC-7721; format: cell-based; conditions: Homo sapiens, SMMC-7721, Table 4; read-out: IC50 (ug/ml) against tumor cell lines, SMMC-7721
Protocol: as §1, §2, §3, §4, §5, §6

[6] = system: mouse grafted uterine cervix cancer U14; assay: Activity against mouse grafted uterine cervix cancer U14; format: in vivo, Kunming mice; conditions: for Tumor weight: X ± SD, n = 10
[7] = system: mouse grafted sarcoma S-180; assay: Activity against mouse grafted sarcoma S-180; format: in vivo, Kunming mice; conditions: for Inhibition rate (%) / Tumor weight: 6 doses; for Tumor weight: X ± SD, n = 10; for Average weight (g)-after administration / Average weight(g)-after administration: mouse, in vivo, iv
Method in brief: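 Male Kunming mice inoculated axillarily with S-180, 10 per group, given 10% compound solutions IV at 0.4, 0.2 or 0.1 ml/mouse from the day after inoculation, alternate days, 6 doses. Tumours excised the day after last dose; inhibition rate from mean tumour weight versus saline control; repeated three times.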

[8] = U14, first experiment, 10 mg/kg
[9] = U14, first experiment, 20 mg/kg
[10] = U14, first experiment, 40 mg/kg
[11] = U14, second experiment, 10 mg/kg
[12] = U14, second experiment, 20 mg/kg
[13] = U14, second experiment, 40 mg/kg
[14] = U14, third experiment, 10 mg/kg
[15] = U14, third experiment, 20 mg/kg
[16] = U14, third experiment, 40 mg/kg
[17] = S-180, first experiment, 10 mg/kg i.v.
[18] = S-180, first experiment, 20 mg/kg i.v.
[19] = S-180, first experiment, 40 mg/kg i.v.
[20] = S-180, second experiment, 10 mg/kg i.v.
[21] = S-180, second experiment, 20 mg/kg i.v.
[22] = S-180, second experiment, 40 mg/kg i.v.

CC(C)C1CC23OC1(O)C/C(=C\Nc1ccc(O)cc1)C2CCC3C (stereo not shown) [Compound 5, Curcumol p-hydroxy aniline]
IC50 [1]: 0.9 µg/mL (≈ 2.62 µM) | IC50 [2]: 3.6 µg/mL (≈ 10.5 µM) | inhibitory effect to all the eight selected tumor cell lines (in words) ([3]; all eight cell lines): strong inhibitory effect | IC50 [4]: 2 µg/mL (≈ 5.82 µM) | IC50 [5]: 4.3 µg/mL (≈ 12.5 µM)

CC(C)C1CC23OC1(O)CC(=CN1CCNCC1)C2CCC3C (stereo not shown) [Compound 8, Curcumol piperazine hydrochloride]
activity to Hela, U-937 and HL-60 cell lines (in words) ([3]; Hela and U-937, also U-937 and HL-60 cell lines): excellent activity | Inhibition rate (%) [6, 8]: 35.6% | Tumor weight [6, 8]: 2.26 ± 0.33 g | Inhibition rate (%) [6, 9]: 54.4% | Tumor weight [6, 9]: 1.60 ± 0.39 g | Inhibition rate (%) [6, 10]: 67.2% | Tumor weight [6, 10]: 1.15 ± 0.36 g | Inhibition rate (%) [6, 11]: 38.8% | Tumor weight [6, 11]: 2.08 ± 0.33 g | Inhibition rate (%) [6, 12]: 55.6% | Tumor weight [6, 12]: 1.51 ± 0.39 g | Inhibition rate (%) [6, 13]: 64.7% | Tumor weight [6, 13]: 1.20 ± 0.36 g | Inhibition rate (%) [6, 14]: 40.1% | Tumor weight [6, 14]: 2.14 ± 0.33 g | Inhibition rate (%) [6, 15]: 54.4% | Tumor weight [6, 15]: 1.65 ± 0.39 g | Inhibition rate (%) [6, 16]: 65.5% | Tumor weight [6, 16]: 1.25 ± 0.36 g | inhibitory effect against mouse grafted uterine cervix cancer U14 (in words) ([6]; all the three concentrations, i.v., female mice): good inhibitory effect | inhibition rate against mouse grafted uterine cervix cancer U14 ([6]; concentration above 40 mg/kg): above 60% | Average weight (g)-after administration ([6]; mouse, in vivo, 10 mg/kg): 21.5 g | Average weight (g)-after administration ([6]; mouse, in vivo, 20 mg/kg): 21.9 g | Average weight(g)-after administration ([6]; mouse, in vivo, 20 mg/kg): 20.9 g | Average weight (g)-after administration ([6]; mouse, in vivo, 40 mg/kg): 21.3 g | Inhibition rate (%) [7, 17]: 16% | Tumor weight [7, 17]: 2.1 ± 0.42 g | Inhibition rate (%) [7, 18]: 20% | Tumor weight [7, 18]: 2.0 ± 0.40 g | Inhibition rate (%) [7, 19]: 48% | Tumor weight [7, 19]: 1.3 ± 0.24 g | Inhibition rate (%) [7, 20]: 15.4% | Tumor weight [7, 20]: 2.2 ± 0.31 g | Inhibition rate (%) [7, 21]: 15.4% | Tumor weight [7, 21]: 2.2 ± 0.29 g | Inhibition rate (%) [7, 22]: 46.1% | Tumor weight [7, 22]: 1.4 ± 0.37 g | Average weight (g)-after administration ([7]; 10 mg/kg): 22.5 g | Average weight(g)-after administration ([7]; 10 mg/kg): 23.5 g | Average weight (g)-after administration ([7]; 20 mg/kg): 21.8 g | Average weight(g)-after administration ([7]; 20 mg/kg): 21.8 g | Average weight (g)-after administration ([7]; 40 mg/kg): 23.0 g | Average weight(g)-after administration ([7]; 40 mg/kg): 23.0 g | inhibitory effect against mouse sarcoma S-180 (in words) ([7]; three different concentrations (40, 20, 10 mg/kg), i.v.): had the inhibitory effect only when the concentration reached 40 mg/kg
